The values below come from the supplement of paper PMC10307832.

Holding throughout (assay): relative viability (nuclei count vs DMSO), 5 days (fraction); higher = more cells survive
The test system of one assay is IA-LM. The method in brief:
(§1)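 Relative viability equals treated-well nuclei counts divided by vehicle-well nuclei counts. Counts came from 4× images of lung cancer cell lines grown in 1536-well plates for 5 days after pin-tool dosing on the day after seeding. Dosing used one drug alone or a fixed anchor-drug dose plus five library-drug doses (not always all listed) in √10 steps, and values are medians of duplicate plates.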

A further assay deals with NCI-H2126. A digest of the protocol:
as §1

In the next assay the test system is NCI-H522. A digest of the protocol: as §1
A further assay deals with EKVX. A digest of the protocol:
as §1

The subject of another assay is NCI-H1648. The method in brief: as §1
In a further assay the test system is ABC-1. The method in brief: as §1

As to `O=C(O)c1ccc(-c2c[nH]c3ncc(-c4ccccc4)cc23)cc1C1CCCC1` + O=C(CCCCCCC(=O)Nc1ccccc1)NO [Vorinostat] (partner 1 µM), the relative viability was found to be 0.976 in the assay with IA-LM (first compound 0.04 µM); 1.07 in the assay with IA-LM (first compound 0.1265 µM); 1.13 in the assay with IA-LM (first compound 0.4 µM); 1.03 in the assay on IA-LM (first compound 1.265 µM); 0.823 in the assay on NCI-H2126 (first compound 0.04 µM); 0.755 in the assay on NCI-H2126 (first compound 0.1265 µM). The relative viability in the assay on NCI-H2126 (first compound 0.4 µM) came to 0.786; with NCI-H2126 (first compound 1.265 µM), 0.616; in the assay on NCI-H522 (first compound 0.04 µM), 0.932; in the assay on NCI-H522 (first compound 0.1265 µM) it was 0.984; in the assay with NCI-H522 (first compound 0.4 µM), 0.843; with NCI-H522 (first compound 1.265 µM), 1.11. The relative viability with EKVX (first compound 0.04 µM) was 0.846; in the assay on EKVX (first compound 0.1265 µM), 0.758; in the assay with EKVX (first compound 0.4 µM), 0.713; with EKVX (first compound 1.265 µM), 0.712; with NCI-H1648 (first compound 0.04 µM), 0.648; in the assay with NCI-H1648 (first compound 0.1265 µM) it was 0.581. The relative viability in the assay with NCI-H1648 (first compound 0.4 µM) is 0.331; with ABC-1 (first compound 0.04 µM), 1.12; in the assay with ABC-1 (first compound 0.1265 µM), 1.36; with ABC-1 (first compound 0.4 µM), 1.31; in the assay with ABC-1 (first compound 1.265 µM), 0.985.

In the case of `NC(=O)Nc1cc(-c2cccc(F)c2)sc1C(=O)N[C@H]1CCCNC1` [AZD7762] + CC(=O)Nc1cccc(-n2c(=O)n(C3CC3)c(=O)c3c(Nc4ccc(I)cc4F)n(C)c(=O)c(C)c32)c1 [Trametinib] (partner 0.02 µM), the relative viability in the assay with NCI-H2126 (first compound 0.01 µM) was 0.547; in the assay with NCI-H2126 (first compound 0.03162 µM) it was 0.629; in the assay with NCI-H2126 (first compound 0.1 µM), 0.529; with NCI-H2126 (first compound 0.3162 µM), 0.639; with NCI-H2126 (first compound 1 µM) it was 0.675; with NCI-H522 (first compound 0.01 µM), 0.666. Besides, the relative viability was 0.822 in the assay on NCI-H522 (first compound 0.03162 µM); 0.737 in the assay with NCI-H522 (first compound 0.1 µM); 0.812 with NCI-H522 (first compound 0.3162 µM); 0.791 in the assay with NCI-H522 (first compound 1 µM); 0.345 with EKVX (first compound 0.01 µM); 0.502 in the assay with EKVX (first compound 0.03162 µM). For the same compound, the relative viability came out at 0.371 in the assay on EKVX (first compound 0.1 µM); 0.314 in the assay with EKVX (first compound 0.3162 µM); 0.279 with EKVX (first compound 1 µM); 0.506 in the assay with NCI-H1648 (first compound 0.01 µM); 0.409 with NCI-H1648 (first compound 0.03162 µM); 0.513 with NCI-H1648 (first compound 0.1 µM). In addition, the relative viability came out at 0.446 in the assay on NCI-H1648 (first compound 0.3162 µM) and 0.514 with NCI-H1648 (first compound 1 µM).

As for `NC(=O)Nc1cc(-c2cccc(F)c2)sc1C(=O)N[C@H]1CCCNC1` [AZD7762] + CC(=O)c1c(C)c2cnc(Nc3ccc(N4CCNCC4)cn3)nc2n(C2CCCC2)c1=O [Palbociclib] (partner 0.5 µM), the relative viability came to 0.353 in the assay with NCI-H2126 (first compound 0.01 µM); 0.363 in the assay on NCI-H2126 (first compound 0.03162 µM); 0.346 in the assay with NCI-H2126 (first compound 0.1 µM); 0.369 in the assay with NCI-H2126 (first compound 0.3162 µM); 0.397 with NCI-H2126 (first compound 1 µM); 1.07 with NCI-H522 (first compound 0.01 µM). For the same compound, the relative viability amounted to 0.987 in the assay on NCI-H522 (first compound 0.03162 µM); 0.999 in the assay with NCI-H522 (first compound 0.1 µM); 1.09 in the assay on NCI-H522 (first compound 0.3162 µM); 1 in the assay on NCI-H522 (first compound 1 µM); 0.414 with EKVX (first compound 0.01 µM); 0.415 in the assay on EKVX (first compound 0.03162 µM). Moreover, the relative viability in the assay on EKVX (first compound 0.1 µM) is 0.372; in the assay on EKVX (first compound 0.3162 µM) it was 0.445; in the assay on EKVX (first compound 1 µM), 0.299; in the assay on NCI-H1648 (first compound 0.01 µM) it was 0.394; in the assay on NCI-H1648 (first compound 0.03162 µM), 0.245; in the assay on NCI-H1648 (first compound 0.1 µM) it was 0.277. Moreover, the relative viability in the assay with NCI-H1648 (first compound 0.3162 µM) worked out at 0.27; with NCI-H1648 (first compound 1 µM) it was 0.283; with ABC-1 (first compound 0.01 µM), 0.884; with ABC-1 (first compound 0.03162 µM), 0.968; with ABC-1 (first compound 0.1 µM), 0.526; in the assay with ABC-1 (first compound 0.3162 µM) it was 0.948. Moreover, the relative viability in the assay with ABC-1 (first compound 1 µM) came out at 0.74.

Regarding `NC(=O)Nc1cc(-c2cccc(F)c2)sc1C(=O)N[C@H]1CCCNC1` [AZD7762] + Nc1nc2[nH]cc(CCc3ccc(C(=O)N[C@@H](CCC(=O)O)C(=O)O)cc3)c2c(=O)[nH]1 [Pemetrexed] (partner 0.2 µM), the relative viability in the assay on NCI-H2126 (first compound 0.01 µM) came to 0.659; in the assay with NCI-H2126 (first compound 0.03162 µM) it was 0.646; in the assay with NCI-H2126 (first compound 0.1 µM), 0.553; in the assay with NCI-H2126 (first compound 0.3162 µM), 0.576; in the assay on NCI-H2126 (first compound 1 µM), 0.365; in the assay with NCI-H522 (first compound 0.01 µM), 1.03. Moreover, the relative viability is 1.05 in the assay on NCI-H522 (first compound 0.03162 µM); 0.862 in the assay with NCI-H522 (first compound 0.1 µM); 0.943 with NCI-H522 (first compound 0.3162 µM); 0.791 with NCI-H522 (first compound 1 µM); 0.394 in the assay with EKVX (first compound 0.01 µM); 0.346 in the assay with EKVX (first compound 0.03162 µM). In addition, the relative viability was found to be 0.248 in the assay on EKVX (first compound 0.1 µM); 0.208 with EKVX (first compound 0.3162 µM); 0.152 in the assay on EKVX (first compound 1 µM); 0.644 with NCI-H1648 (first compound 0.01 µM); 0.646 with NCI-H1648 (first compound 0.03162 µM); 0.704 in the assay with NCI-H1648 (first compound 0.1 µM). The relative viability in the assay on NCI-H1648 (first compound 0.3162 µM) stood at 0.553; with NCI-H1648 (first compound 1 µM) it was 0.631.
